We go through one molecule from patent US6495537B1, “Method for inhibition of photocarcinogenesis or photoimmunosuppression using niacin” (University of Kentucky Research Foundation, priority 1998, dated 2002).

The subject of data set [1] is UV-induced skin tumors. The note with it: for number of tumors per mouse: 26.5 weeks after first UV treatment, basal diet 0.72; for skin tumor incidence: UV-irradiated mice, 26.5 weeks after first UV exposure, unsupplemented 68%. As for the experimental part: Six-week-old specific-pathogen-free female BALB/cAnNTacfBR (H-2^d) mice were purchased from Taconic Laboratory Animals (Germantown, N.Y.) and quarantined from two weeks before treatment. Animals were housed in microisolators under barrier conditions with a 12:12-hour light-dark cycle at 20+/−2° C. (SD).
(§1) Groups of 25 mice each received the basal diet which consisted of the American Institute of Nutrition 76A rodent diet containing 10% corn oil and 30 mg niacin per kilogram diet, supplemented with 0, 0.1, 0.5, or 1.0% niacin (Dyets Inc. Bethlehem, Pa.). All diets were pelleted (Dyets Inc.) without heat or steam and stored under refrigeration for less than 10 weeks. Animals were fed ad libitum and given fresh diet three times per week for three weeks before UV treatments began, and throughout the study. Niacin intakes were calculated from the diet consumed. Animals were supplied with sterilized water ad libitum.
(§2) The mice were exposed to UV radiation after three weeks of oral niacin administration. The animals were shaved dorsally with animal clippers each week. The filter tops, food, and water bottles were removed from the microisolators while mice were exposed to UV radiation emitted by banks of six FS40 Westinghouse fluorescent sun lamps for 30 min per day, five days per week. This UV regimen continued for 22 weeks in the carcinogenesis experiments, and for 11 weeks in the passive transfer assay experiments. The cages were systemically rotated during the study to compensate for any differences in flux at different positions under the lamps. The FS40 lamps emit a continuous spectrum from 270 to 390 nm with peak emission at 313 nm. About 75% of the energy output is in the wavelength range of 280-340 nm with about 23% in the 340-390 nm range. The total UVB radiation dose was approximately 1.41×10^6 Jm^−2 in the carcinogenesis experiments, and about […] in the passive transfer experiments, as measured with a UVX Digital Radiometer with a UVX-31 sensor (Ultraviolet Products, San Gabriel, Calif.).
(§3) Differences in primary tumor incidence between the experimental groups were analyzed by the Wilcoxon rank sum test. […] For the NAD assay, the Q test was first applied to the data to determine whether questionable values should be rejected. This test was conducted at the 95% confidence level. The data were then analyzed using the MIXED procedure in the statistical analysis program SAS 6.11. […] In this manner, it was possible to first account for differences and variability in duplicate or triplicate samples from the same mouse before the differences between each mouse in each group was compared. This procedure resulting in more precise group means than if each single value carried equal weight. Least-squares means for each group were calculated, and a multiple comparison between these means was made after applying a Tukey-Kramer adjustment for the p-values.
Groups of 25 mice each were fed the AIN76A rodent diet containing 10% corn oil and 30 mg niacin per kilogram diet, supplemented with 0, 0.1, 0.5, or 1.0% niacin. After three weeks of this diet, dorsally shaved mice were exposed to UV radiation for 30 min per day, five days per week for 22 weeks.

Data set [2] concerns UVM12 tumor cells. The note with it: 32 days after tumor challenge, 0% niacin 91.6, unirradiated control 21.9. As to the method:
as §2, §3

Data set [3] concerns skin NAD. As to the method:
as §3

For data set [4] the following is noted: for Body Weight: mean; for Food Consumed: mean (SD). As to the method: as §1
Niacin ingestion was calculated from diet consumption recorded on 50% of the animals of each group.

Where [5] appears, read: diet supplemented with 0.1% niacin.

Read-outs that look alike come from different tables or passages of the source.

Turning to `O=C(O)c1cccnc1` [niacin], the “number of tumors per mouse” value in data set [1] (setting [5]) was found to be 0.6%; in data set [1] (diet supplemented with 0.5% niacin), 0.48%; in data set [1] (diet supplemented with 1.0% niacin), 0.4%. Also, the skin tumor incidence turned out to be 60% in data set [1] (setting [5]); 48% in data set [1] (diet supplemented with 0.5% niacin, p=0.0257); 28% in data set [1] (diet supplemented with 1.0% niacin, p=0.0257). Besides, the values for the mean tumor size in data set [2] (recipients of splenocytes from UVB-irradiated donors on 0.1% niacin), in data set [2] (recipients of splenocytes from UVB-irradiated donors on 0.5% niacin) and in data set [2] (recipients of splenocytes from UVB-irradiated donors on 1.0% niacin) were 79.8(+/−11.5) sq mm, 41.9 (+/−11.7) sq mm and 13.2(+/−4.1) sq mm, respectively. The “skin NAD content vs UV-irradiated mice receiving no additional niacin” value in data set [3] (0.5% niacin supplementation, p<0.0001 dorsal skin, p=0.0114 ventral skin) is given as “significantly higher skin NAD content”; in data set [3] (1.0% niacin supplementation, p=0.0025 dorsal skin, p=0.0017 ventral skin), “significantly higher skin NAD content”. Also, the “body weights of UV-irradiated mice, with or without supplemental niacin” value in data set [4] (0.1, 0.5 or 1.0% niacin diets vs basal diet) was “similar”. Also, the “Body Weight” value is 18.2 grams in data set [4] (+UV +0.1% niacin diet), 18.07 grams in data set [4] (+UV +0.5% niacin diet) and 18.55 grams in data set [4] (+UV +1% niacin diet). Further, the “Food Consumed” value is on record as 2.47 (0.54) g/mouse/day in data set [4] (+UV +0.1% niacin diet), 2.77 (0.66) g/mouse/day in data set [4] (+UV +0.5% niacin diet) and 2.88 (0.60) g/mouse/day in data set [4] (+UV +1% niacin diet).
